Results on one compound are retold here after article PMC4979471 (Cell Death Discovery, 2015).

SMILES strings stand for the structures. “Also recorded” adds a separate entry of the source. Read-outs that look alike come from different tables or passages of the source.

One data set concerns the target T1, recombinant human IDO (Homo sapiens, UniProt P14902).
T1 construct: purchased R&D Systems (Minneapolis, MN, USA)
The data set is described as follows: IDO enzymatic assay. The data set is classed as biochemical. As to conditions: in vitro enzymatic assay.

Data set [1] deals with human monocytic U937 cells. The experiment in a line: TNF+zVAD-induced necroptosis, CellTiter-Glo. Conditions: U-937, U937, overnight, read-out: IC50 blocking necroptosis. The data set is classed as cell-based. How it is done: (§1) Mouse fibrosarcoma L929 cells (ATCC# CCL-1) and human monocytic U937 cells (ATCC# CRL-1593.2) were cultured in RPMI media supplemented with 10% heat-inactivated FBS, 100 U/ml penicillin and […] streptomycin. BMDM were prepared from C57BL/6 mice by differentiation with 10 ng/ml M-CSF (R&D Systems) for 7 days and cultured in DMEM medium supplemented with 10% heat-inactivated FBS, 100 U/ml penicillin, 100 μg/ml streptomycin and 0.25 μg/ml amphotericin. Primary human neutrophils were isolated from human blood following the standard method comprised of sequential sedimentation in dextran, density centrifugation in Ficoll–Hypaque and lysis of contaminating red blood cells.
(§2) […] To evaluate the effect of RIP1 inhibitors, cells were pretreated with compound (dose–response) for 30 min. Induced cell death was evaluated 19–21 h later by measuring cellular ATP levels using CellTiter-Glo Luminescent Cell Viability assay (Promega, Fitchburg, WI, USA). To induce necroptosis in neutrophils, freshly isolated human neutrophils were stimulated with TNF (10 ng/ml), QVD-Oph (50 μM) and SMAC mimetic (100 nM). Induced cell death was evaluated as above.

The subject of data set [2] is mouse fibrosarcoma L929 cells. The data set is described as follows: TNF+zVAD-induced necroptosis, CellTiter-Glo. The format is cell-based. Conditions: overnight, read-out: IC50 blocking necroptosis. How it is done:
as §1, §2

Data set [3] has as its system primary mouse bone marrow-derived macrophages (BMDMs). The data set is described as follows: TNF+zVAD-induced necroptosis, CellTiter-Glo. Conditions: BMDM, read-out: IC50 blocking necroptosis. The data set is classed as cell-based. As to the method:
as §1
(§3) Necroptotic cell death was induced in BMDM, L929 and U937 cells with TNF in the presence of caspase inhibitor zVAD-FMK or QVD-Oph (BMDM: 50 ng/ml TNF+50 μM zVAD; L929: 100 ng/ml TNF+50 μM QVD; U937: 100 ng/ml TNF+25 μM QVD). To evaluate the effect of RIP1 inhibitors, cells were pretreated with compound (dose–response) for 30 min. Induced cell death was evaluated 19–21 h later by measuring cellular ATP levels using CellTiter-Glo Luminescent Cell Viability assay (Promega, Fitchburg, WI, USA). To induce necroptosis in neutrophils, freshly isolated human neutrophils were stimulated with TNF (10 ng/ml), QVD-Oph (50 μM) and SMAC mimetic (100 nM). Induced cell death was evaluated as above.

Data set [4] concerns primary human neutrophils. The data set is described as follows: TNF, zVAD and SMAC mimetic-induced necroptosis, CellTiter-Glo. The format is cell-based. As to conditions: Neutrophil, read-out: IC50 blocking necroptosis. As to the method: as §1
Necroptotic cell death was induced in BMDM, L929 and U937 cells with TNF in the presence of caspase inhibitor zVAD-FMK or QVD-Oph (BMDM: 50 ng/ml TNF+50 μM zVAD; L929: 100 ng/ml TNF+50 μM QVD; U937: 100 ng/ml TNF+25 μM QVD). To evaluate the effect of RIP1 inhibitors, cells were pretreated with compound (dose–response) for 30 min. Induced cell death was evaluated 19–21 h later by measuring cellular ATP levels using CellTiter-Glo Luminescent Cell Viability assay (Promega, Fitchburg, WI, USA). […] Induced cell death was evaluated as above.

A further data set deals with BMDM. The experiment in a line: TNF+cycloheximide-stimulated apoptosis (cell viability, Caspase 3/7). The data set is classed as cell-based, mouse. As to conditions: 100 nM. How it is done:
Caspase 3/7 activity was measured at 6 h using the Caspase-Glo 3/7 assay (Promega).

A further data set addresses T2, CAMK1a (Homo sapiens, UniProt Q14012).
T2 construct: purchased Reaction Biology Corp
The experiment in a line: Kinase selectivity, P33-radiolabeled assay. The data set is classed as biochemical. Conditions: 10 μM ATP. As to the method:
(§4) The compound was tested at a single dose in duplicate at 10 μM. Reactions were carried out at 10 μM ATP. Data are reported as % enzyme activity (relative to DMSO controls). The full data set is shown in the Supplementary Table I.

The target of another data set is T3, KDR/VEGFR2 (Homo sapiens, UniProt P35968).
T3 construct: purchased Reaction Biology Corp
The data set is described as follows: Kinase selectivity, P33-radiolabeled assay. The format is biochemical. As to conditions: 10 μM ATP. As to the method: as §4

In a further data set the test system is 339 kinases. As to the method:
as §4

The nature of data set [5]: Pharmacokinetic profile after i.p. administration. The data set is classed as in vivo, C57BL/6 mice. As to conditions: i.p., mice. How it is done: Briefly, pharmacokinetic studies were conducted using n=3 animals per group for each compound. […] Blood samples were obtained at various time points following intraperitoneal injection and diluted 1 : 1 with water prior to storage at −80 °C.
Prior to bioanalysis, samples were thawed and each analyte was isolated using a method based on protein precipitation. The resulting supernatant was injected into an LC/MS/MS system optimized for detection of the compound of interest. Data were reported as quantitative drug concentrations as determined by standard calibration curve analysis. Using these optimized conditions, the typical lower limit of quantitation achieved was 1.00 ng/ml for both compounds.

Another data set concerns human and murine cells. The experiment in a line: RIP1-dependent cell death, summary statements. The format is cell-based. As to conditions: read-out: IC50 inhibiting RIP1-dependent cell death. As to the method: as §3
The mark [6] stands for this setting: read-out: % Enzyme Activity (relative to DMSO controls) AVG.
Where [7] appears, read: read-out: % Enzyme Activity (relative to DMSO controls) Data 1.
The mark [8] stands for this setting: read-out: % Enzyme Activity (relative to DMSO controls) Data 2.

T2 sequence (Q14012 whole entry): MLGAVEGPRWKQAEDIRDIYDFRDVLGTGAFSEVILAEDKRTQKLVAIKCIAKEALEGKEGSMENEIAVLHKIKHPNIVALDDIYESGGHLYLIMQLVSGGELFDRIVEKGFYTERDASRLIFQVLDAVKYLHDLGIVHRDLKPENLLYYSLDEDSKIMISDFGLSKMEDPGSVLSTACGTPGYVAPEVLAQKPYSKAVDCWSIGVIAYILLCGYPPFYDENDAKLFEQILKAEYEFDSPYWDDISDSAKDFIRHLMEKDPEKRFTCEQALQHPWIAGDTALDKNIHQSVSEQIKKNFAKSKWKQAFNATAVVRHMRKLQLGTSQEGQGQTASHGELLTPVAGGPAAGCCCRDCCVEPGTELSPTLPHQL
T3 sequence (P35968 20-1356): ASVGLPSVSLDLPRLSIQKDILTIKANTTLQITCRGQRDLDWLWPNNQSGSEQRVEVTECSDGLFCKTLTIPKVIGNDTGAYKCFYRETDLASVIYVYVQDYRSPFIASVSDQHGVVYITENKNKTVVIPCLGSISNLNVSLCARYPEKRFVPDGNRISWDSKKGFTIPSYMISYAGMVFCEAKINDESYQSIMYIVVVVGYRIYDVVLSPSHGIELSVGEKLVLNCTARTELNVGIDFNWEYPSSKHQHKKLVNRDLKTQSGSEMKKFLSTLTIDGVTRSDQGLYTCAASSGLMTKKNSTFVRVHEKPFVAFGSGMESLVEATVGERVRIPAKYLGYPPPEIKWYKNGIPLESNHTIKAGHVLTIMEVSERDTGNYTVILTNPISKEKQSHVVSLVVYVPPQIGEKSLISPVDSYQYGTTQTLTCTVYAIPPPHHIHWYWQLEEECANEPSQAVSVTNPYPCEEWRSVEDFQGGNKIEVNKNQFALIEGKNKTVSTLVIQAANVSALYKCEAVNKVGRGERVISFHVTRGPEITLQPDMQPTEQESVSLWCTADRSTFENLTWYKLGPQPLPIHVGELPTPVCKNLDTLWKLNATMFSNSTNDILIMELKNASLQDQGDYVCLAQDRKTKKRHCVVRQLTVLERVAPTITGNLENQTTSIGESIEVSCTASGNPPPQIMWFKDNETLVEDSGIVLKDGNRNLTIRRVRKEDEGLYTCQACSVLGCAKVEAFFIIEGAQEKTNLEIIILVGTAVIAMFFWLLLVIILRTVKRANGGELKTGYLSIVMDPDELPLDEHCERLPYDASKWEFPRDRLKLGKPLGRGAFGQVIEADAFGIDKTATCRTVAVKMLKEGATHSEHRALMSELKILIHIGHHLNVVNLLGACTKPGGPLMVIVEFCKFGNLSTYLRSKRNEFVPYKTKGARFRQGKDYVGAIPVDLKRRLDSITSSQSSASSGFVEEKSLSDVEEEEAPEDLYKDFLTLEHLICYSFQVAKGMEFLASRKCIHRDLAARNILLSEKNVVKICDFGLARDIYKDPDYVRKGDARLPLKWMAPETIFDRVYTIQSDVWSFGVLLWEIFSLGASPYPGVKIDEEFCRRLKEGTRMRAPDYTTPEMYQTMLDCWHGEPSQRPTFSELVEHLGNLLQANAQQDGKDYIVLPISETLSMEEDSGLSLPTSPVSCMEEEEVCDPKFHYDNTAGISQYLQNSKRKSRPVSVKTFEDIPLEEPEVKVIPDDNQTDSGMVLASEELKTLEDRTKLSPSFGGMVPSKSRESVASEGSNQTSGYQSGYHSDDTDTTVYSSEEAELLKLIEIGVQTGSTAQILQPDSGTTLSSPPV
T1 sequence (P14902 whole entry): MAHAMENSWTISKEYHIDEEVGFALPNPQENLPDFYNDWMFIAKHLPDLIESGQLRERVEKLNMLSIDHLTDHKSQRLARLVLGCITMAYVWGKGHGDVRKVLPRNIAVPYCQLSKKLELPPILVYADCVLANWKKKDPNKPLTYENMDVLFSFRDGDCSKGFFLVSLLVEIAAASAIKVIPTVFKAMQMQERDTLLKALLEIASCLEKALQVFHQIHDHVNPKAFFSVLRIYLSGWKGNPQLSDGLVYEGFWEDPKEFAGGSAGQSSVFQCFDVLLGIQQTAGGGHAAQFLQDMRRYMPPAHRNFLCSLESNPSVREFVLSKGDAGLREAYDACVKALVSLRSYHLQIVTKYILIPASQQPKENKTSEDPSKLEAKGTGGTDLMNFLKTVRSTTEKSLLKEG
Experimental for recombinant human IDO: IDO activity was determined as described by Takahashi et al.[25] using recombinant human IDO purchased from R&D Systems (Minneapolis, MN, USA). The yellow pigment derived from kynurenine was measured at 490 nm using the Spectramax microplate reader (Molecular Devices).

Regarding `CC(C)(C)C(=O)N1N=CC[C@H]1c1ccccc1` [GSK′963], the “effect on IDO activity” value at recombinant human IDO is “lacks measurable activity; also recorded: no effect; also recorded: inactive”. Besides, the IC50 was 4 nM in [1]; 1 nM in data set [2]; 3 nM in data set [3]; 0.9 nM in [4]; 1 to 4 nM in the data set on human and murine cells. Also, in the data set with BMDM, the “effect on TNF+CHX-stimulated apoptosis” value is “no measurable effects; also recorded: no effect”. Further, the remaining activity at 10 µM came to 96.3% on CAMK1a (setting [6]); 99.3% on CAMK1a (setting [7]); 93.3% on CAMK1a (setting [8]); 97.1% at KDR/VEGFR2 (setting [6]); 96.8% at KDR/VEGFR2 (setting [7]); 97.5% at KDR/VEGFR2 (setting [8]). In the data set on 339 kinases (10μM, Reaction Biology Corporation), the “activity against 339 human kinases” value is listed as “does not block the activity of any”. Further, in the data set with 339 kinases (10 μM, panel of 339 kinases), the “inhibition against all other kinases tested” value is listed as less than 50%. Further, in data set [5], the apparent half-life entry is reported as “greater than that for Nec-1”.
